The values that follow come from patent US20260231939A1, “ARTHROPOD CONTROL COMPOSITIONS” (Firmenich SA, priority 2022, published 2026).

Molecules are shown by their SMILES.

Assay [1] concerns Ae. aegypti. Description: Arm-in-cage test on human volunteers. Format: in vivo, Aedes aegypti. Conditions: Arm-in-Cage, 20% in ethanol, paired t-test, FIG. 5. Here is the method:
(§1) The Arm in the box method was adapted from the WHO Guidelines for efficacy testing of mosquito repellents for human skin (WHO/CDS/NTD/WHOPES/2009.4) and/or based on EU biocide testing guidelines (Guidance on the Biocidal Products Regulation. Vol. II Efficacy—Assessment and Evaluation (Parts B+C), v. 4.0. December 2021). The readiness of 200 hungry female mosquitoes Ae. aegypti or 50 An. gambiae to probe is assessed by inserting the untreated arm of human volunteers into the cage (40×40×40 cm) for 30 seconds (negative control) in order to determine probing activity. Then, the product is applied onto the skin of the forearm of the human volunteer (1 mL per 600 cm^2) and after 5 minutes (Ae. aegypti) or 30 minutes (An. gambiae), this arm is inserted into the cage and exposed for 3 minutes. The assay take place in temperature (27±2° C.) and humidity (80±10% RH) regulated room on three different human volunteers.

Assay [2] relates to An. gambiae. Description: Arm-in-cage test on human volunteers. Conditions: for time during which protection is 100%, i.e. no mosquito landing: 20% in ethanol; for time during which mosquito protection / repellence is >90%: 20% solution in ethanol; for repellent effect: dilution of 5%; for Arm-in-cage repellence, mean of three volunteers: unsaturated δ-lactones at 20%. Format: in vivo, Anopheles gambiae. Here is the method: as §1

For assay [3], the system named is Aedes aegypti. As to the kind of experiment: Warm Body assay, mosquito landings on the baited warm body. Format: in vivo. The settings on record: for repellence efficacy compared with the saturated counterpart: Warm Body assay, paired t-test where given. Here is the method:
The controlling effect according to the present invention was assessed using an adapted Warm Body assay as defined in Kröber T, Kessler S, Frei J, Bourquin M, Guerin P M. 2010. J Am Mosq Control Assoc. 26:381-386. In this in-vitro assay the number of mosquito landing on a warm body, simulating an attractive host treated with the tested stimuli, was measured in order to assess the repellence effect.
The published protocol has been adapted as the switch from Anopheles gambiae to Ae. aegypti led to a decrease of mosquitoes placed in the tested cage due to the size difference (i.e. 30 mosquitoes instead of 50) and to an increase of lighting since Ae. aegypti is a diurnal mosquitoes (i.e. 150 lux instead of 4 lux).
(§2) On the sandblasted glass Petri dish covering the warm body (28.3 cm^2), 100 μL of the compounds diluted at different concentrations in ethanol was applied. The number of mosquito landing on the warm body was counted for each stimulus. Number of landings on pure ethanol (solvent) control treatment was used to normalize the data and calculate the percentage of repellence.

For assay [4], the system named is Ixodes ricinus. As to the kind of experiment: Warm Plate Assay for ticks. The settings on record: for lower dose at which 100% of repellent efficacy is already reached: in vivo.
Assay [5] has as its system Anopheles gambiae. As to the kind of experiment: Warm Body assay, mosquito landings on the baited warm body. The class given is in vivo. Conditions: Warm Body assay, paired t-test, FIG. 4. Here is the method: Anopheles gambiae is also a model organism as it is anthropophilic and transmits malaria.
The controlling effect according to the present invention was assessed using an adapted Warm Body assay as defined in Kröber T, Kessler S, Frei J, Bourquin M, Guerin P M. 2010. J Am Mosq Control Assoc. 26:381-386. In this in-vitro assay the number of mosquito landing on a warm body, simulating an attractive host treated with the tested stimuli, was measured in order to assess the repellence effect. […]
as §2

With `CCC=CCC1CCCC(=O)O1` (centres unmarked) [6-pent-2-enyloxan-2-one], the “repellence efficacy compared with saturated 6-pentyloxan-2-one” value in assay [1] was “more efficient”. Moreover, the “time during which protection is 100%, i.e. no mosquito landing” value in assay [2] was 4 h. Further, the “time during which mosquito protection / repellence is >90%” value in assay [2] is given as 6 h. Besides, the repellent effect in assay [2] (30 min after application) amounted to 100%; in assay [2] (1 h after application), 99.2%; in assay [2] (2 h after application) it was 67.2%. In addition, the “Arm-in-cage repellence, mean of three volunteers” value (shortened to “Arm-in-cage repellence, mean”) in assay [2] (30 min) is 100% ±; in assay [2] (1 h) it was 100% ±; in assay [2] (2 h) it was 100% ±; in assay [2] (3 h) it was 100% ±; in assay [2] (4 h), 100% ±; in assay [2] (5 h), 99.2% ±. In addition, the figures for the “Arm-in-cage repellence, mean” value in assay [2] (6 h) and in assay [2] (7 h) were 92.3% ± and 87.8% ±, respectively. The “repellence efficacy compared with the saturated counterpart” value in assay [3] and in assay [5] was “significantly more efficient” each time. Besides, the “Percentage of repellence of ticks on the warm plate” value in assay [4] (0.08 mg/mL) turned out to be 33%; in assay [4] (0.18 mg/mL), 42%; in assay [4] (0.40 mg/mL), 75%; in assay [4] (0.89 mg/mL) it was 100%; in assay [4] (2 mg/mL), 100%; in assay [4] (10 mg/mL), 100%. For the same molecule, the “lower dose at which 100% of repellent efficacy is already reached” value in assay [4] was 0.089%.

Regarding `CC=CCCC1CCCC(=O)O1` (centres unmarked) [6-pent-3-enyloxan-2-one], in assay [1], the “repellence efficacy compared with saturated 6-pentyloxan-2-one” value is “more efficient”. Further, in assay [2], the “time during which protection is 100%, i.e. no mosquito landing” value was 3 h. For the same molecule, the “time during which mosquito protection / repellence is >90%” value in assay [2] is 8 h. Moreover, the “Arm-in-cage repellence, mean” value was 100% ± in assay [2] (30 min); 100% ± in assay [2] (1 h); 100% ± in assay [2] (2 h); 100% ± in assay [2] (3 h); 99.0% ± in assay [2] (4 h); 98.4% ± in assay [2] (5 h). Further, the “Arm-in-cage repellence, mean” value is reported as 98.3% ± in assay [2] (6 h), 94.9% ± in assay [2] (7 h) and 94.7% ± in assay [2] (8 h). The pest or weed control at 16 µg/mL in assay [3] (Aedes aegypti, δ-lactones, 0.016 mg/mL, read-out: Percentage of repellence of mosquitoes landing on the warm body) was 20%. The pest or weed control at 400 µg/mL in assay [3] (Aedes aegypti, δ-lactones, 0.4 mg/mL, read-out: Percentage of repellence of mosquitoes landing on the warm body) is 98%. In addition, the pest or weed control at 10000 µg/mL in assay [3] (Aedes aegypti, δ-lactones, 10 mg/mL, read-out: Percentage of repellence of mosquitoes landing on the warm body) amounted to 100%. Further, the “repellence efficacy compared with the saturated counterpart” value in assay [3] and in assay [5] was “significantly more efficient” each time. Moreover, the “Percentage of repellence of ticks on the warm plate” value in assay [4] (0.40 mg/mL) came out at 83%; in assay [4] (2 mg/mL), 100%; in assay [4] (10 mg/mL), 100%. For the same molecule, the “lower dose at which 100% of repellent efficacy is already reached” value in assay [4] came to 0.2%.
